Calls of active or inactive are those of the source. No cut-off for these calls is given here.

For orientation: IC50 means the point on the concentration scale where inhibition reaches its midpoint.

Data set [1] concerns the target T1, Prostaglandin G/H synthase 1 (Ovis aries, UniProt P05979).
T1 sequence (P05979 whole entry): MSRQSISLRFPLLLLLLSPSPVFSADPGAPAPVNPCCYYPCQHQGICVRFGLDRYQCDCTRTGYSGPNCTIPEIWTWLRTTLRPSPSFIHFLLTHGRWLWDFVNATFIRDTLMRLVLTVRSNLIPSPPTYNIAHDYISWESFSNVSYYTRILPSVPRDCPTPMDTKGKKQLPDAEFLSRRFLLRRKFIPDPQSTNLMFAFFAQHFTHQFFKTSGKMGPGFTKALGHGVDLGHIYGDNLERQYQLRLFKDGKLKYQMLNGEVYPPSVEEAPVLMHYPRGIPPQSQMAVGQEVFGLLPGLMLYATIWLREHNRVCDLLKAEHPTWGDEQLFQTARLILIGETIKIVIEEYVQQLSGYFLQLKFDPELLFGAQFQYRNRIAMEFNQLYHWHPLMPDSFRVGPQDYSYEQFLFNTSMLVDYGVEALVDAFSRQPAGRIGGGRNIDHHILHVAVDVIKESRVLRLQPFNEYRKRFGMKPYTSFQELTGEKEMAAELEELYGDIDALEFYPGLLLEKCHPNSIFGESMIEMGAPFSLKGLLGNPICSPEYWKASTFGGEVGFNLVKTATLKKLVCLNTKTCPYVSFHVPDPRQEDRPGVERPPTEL
Put plainly: Inhibition of ovine COX-1 using arachidonic acid as substrate preincubated with compound for 5 mins followed by substrate addition and measured after 2 mins by enzyme immunoassay.

Data set [2] has as its system PC-12. Put plainly: Protection against SNP-induced cell damage in rat PC-12 cells at 10 uM pretreated with compound for 2 hrs followed by SNP addition and measured after 24 hrs by MTT assay. It counts as functional, cell-based. Conditions: time 26.0 hrs.
The subject of data set [3] is RAW264.7. Kind of data set: Cytotoxicity against mouse RAW264.7 cells assessed as reduction in cell viability at 5 uM incubated for 24 hrs by MTT assay. In kind it is toxicity, cell-based. As to conditions: raw264.7, 24 h. Background: Formazan colour is commonly taken as a measure of viable cells.
The test system of data set [4] is RAW264.7. Put plainly: Anti-inflammatory activity in mouse RAW264.7 cells assessed as inhibition of LPS-induced NO production preincubated with compound for 1 hrs followed by LPS stimulation and measured after 24 hrs. In kind it is functional, cell-based. As to conditions: time 25.0 hrs.
For data set [5], the system named is RAW264.7. Put plainly: Anti-inflammatory activity in LPS-induced mouse RAW264.7 cells assessed as reduction in PGE2 level preincubated with compound for 1 hrs followed by LPS stimulation and measured after 24 hrs by ELISA. It counts as functional, cell-based. Conditions: time 25.0 hrs. A general note: In an ELISA, binding on a coated surface is turned into a signal by an enzyme label.

The subject of data set [6] is PC-12. Put plainly: Neuroprotective activity against SNP-induced cell damage in rat PC-12 cells at 2.5 to 100 uM pretreated with compound for 2 hrs followed by SNP addition and measured after 24 hrs by MTT assay. In kind it is functional, cell-based. Conditions: dose 2.5-100 µM, time 26.0 hrs.
The subject of data set [7] is Rattus norvegicus. Put plainly: Neuroprotective activity against middle cerebral artery occlusion induced ischemia stroke Sprague-Dawley rat model assessed as cerebral infarction area at 10 mg/kg, ip measured after 24 hrs by TTC staining based imaging analysis (reference value: 20.08 +/- 5.70). It counts as functional.
In data set [8] the test system is Rattus norvegicus. Kind of data set: Neuroprotective activity against middle cerebral artery occlusion induced ischemia stroke Sprague-Dawley rat model assessed as reduction in glycocalyx degradation by measuring decrease in serum syndecan-1 level at 20 mg/kg, ip measured after 24 hrs by ELISA. It counts as functional, organism-based.
For data set [9], the system named is PC-12. Kind of data set: Neuroprotective activity against SNP-induced cell damage in rat PC-12 cells pretreated with compound for 2 hrs followed by SNP addition and measured after 24 hrs by MTT assay. In kind it is functional, cell-based. As to conditions: dose 2.5-100 µM, time 26.0 hrs.

In the case of `COc1ccc(-c2nc(-c3ccccc3O)n(-c3ccc(S(N)(=O)=O)cc3)n2)c(O)c1`, the IC50 in [1] was determined as 45.5 µM. The outcome in data set [2] was Active.
As for `NS(=O)(=O)c1ccc(-n2nc(-c3ccccc3)nc2-c2ccccc2O)cc1`, the 50% inhibitory concentration (IC50) in [1] stood at 32.1 µM. Further, the Activity entry in data set [3] was “Non-Toxic”. Moreover, the outcome in data set [4], in data set [5] and in [2] was Active.
With `Cc1ccc(-c2cc(C(F)(F)F)nn2-c2ccc(S(N)(=O)=O)cc2)cc1` [CELECOXIB], the Activity result in data set [3] is reported as “Non-Toxic”. For the same compound, the result in data set [4] and in [5] was Active. Further, the result in [6] was inactive.
As for `COc1ccc(-c2nc(-c3ccc(OC)cc3O)n(-c3ccc(S(N)(=O)=O)cc3)n2)c(O)c1`, in data set [2], the result was Active.
Still for that read-out and setting: as for `NS(=O)(=O)c1ccc(-n2nc(-c3ccc(C(F)(F)F)cc3O)nc2-c2ccc(C(F)(F)F)cc2O)cc1`, the entry is “Active”; as for `COc1ccc(-c2nc(-c3ccccc3O)n(-c3ccc(S(N)(=O)=O)cc3)n2)cc1`, “Active”; as for `NS(=O)(=O)c1ccc(-n2nc(-c3ccc([N+](=O)[O-])cc3O)nc2-c2ccccc2O)cc1`, “Active”.
With `CC1=NN(c2ccccc2)C(=O)C1` [EDARAVONE], the Activity in [7] is 15.41. Further, the result in data set [8] was Active.
As for `NS(=O)(=O)c1ccc(-n2nc(-c3ccc(F)cc3)nc2-c2ccccc2O)cc1`, the IC50 in [1] is 41.6 µM. The Activity result in [3] is “Non-Toxic”. The outcome in data set [4], in data set [5] and in data set [2] was Active.
Take `CS(=O)(=O)c1ccc(-n2nc(-c3ccc(C(F)(F)F)cc3O)nc2-c2ccccc2O)cc1`: the IC50 in data set [1] came out at 82.1 µM. The Activity result was “Non-Toxic” in data set [3] and “Dose-Dependent Effect” in [9]. The result in [4], in data set [5] and in data set [2] was Active.
On to `NS(=O)(=O)c1ccc(-n2nc(-c3ccccc3O)nc2-c2ccccc2O)cc1`, for which the IC50 in data set [1] came out at 39.2 µM. Also, the figures for the Activity result in data set [3] and in data set [9] were “Non-Toxic” and “Dose-Dependent Effect”, respectively. Moreover, the result in data set [4], in data set [5] and in [2] was Active.
`Cc1ccc(-c2nc(-c3ccccc3O)n(-c3ccc(S(N)(=O)=O)cc3)n2)c(O)c1`: the IC50 in data set [1] amounted to 42.3 µM. Moreover, the Activity result is “Non-Toxic” in data set [3] and “Dose-Dependent Effect” in data set [9]. For the same compound, the outcome in [4], in [5] and in data set [2] was Active.
In the case of `COc1ccc(-c2nc(-c3ccccc3O)n(-c3ccc(S(C)(=O)=O)cc3)n2)c(O)c1`, the result in data set [2] was Active.
The same measure, in the same setting: in the case of `NS(=O)(=O)c1ccc(-n2nc(-c3ccc(Cl)cc3O)nc2-c2ccc(Cl)cc2O)cc1` it was “Active”.
With `NS(=O)(=O)c1ccc(-n2nc(-c3ccc(F)cc3O)nc2-c2ccc(F)cc2O)cc1`, the IC50 in data set [1] is 26.3 µM. For the same compound, the Activity result in [3] is “Non-Toxic”; in [9], “Dose-Dependent Effect”. Also, the result in data set [4], in data set [5] and in data set [2] was Active.
For `Cc1ccc(-c2nc(-c3ccc(C)cc3O)n(-c3ccc(S(N)(=O)=O)cc3)n2)c(O)c1`, in data set [2], the outcome was Active.
Take `COc1ccc(-c2nc(-c3ccccc3OC(C)=O)n(-c3ccccc3)n2)c(OC(C)=O)c1`: the result in data set [2] was Active.
For `NS(=O)(=O)c1ccc(-n2nc(-c3ccc(C(F)(F)F)cc3)nc2-c2ccccc2O)cc1`, the IC50 in [1] was found to be 43.4 µM. Further, the Activity result in [3] is reported as “Non-Toxic”. Besides, the result in data set [4], in data set [5] and in data set [2] was Active.
Consider `COc1cccc(-c2nc(-c3ccccc3O)n(-c3ccc(S(N)(=O)=O)cc3)n2)c1O`, for which the IC50 in [1] amounted to 20 µM. Moreover, in data set [2], the result was Active.
As for `NS(=O)(=O)c1ccc(-n2nc(-c3ccc(Cl)cc3O)nc2-c2ccccc2O)cc1`, the IC50 in [1] worked out at 25.6 µM. Further, the outcome in [2] was Active.
In the case of `NS(=O)(=O)c1ccc(-n2nc(-c3ccc([N+](=O)[O-])cc3)nc2-c2ccccc2O)cc1`, the result in [2] was Active.
On the same count and under the same terms, as for `NS(=O)(=O)c1ccc(-n2nc(-c3ccc(F)cc3O)nc2-c2ccccc2O)cc1`, the entry is “Active”; as for `CC(=O)Oc1ccccc1-c1nc(-c2ccccc2OC(C)=O)n(-c2ccccc2)n1`, “Active”; as for `CS(=O)(=O)c1ccc(-n2nc(-c3ccccc3O)nc2-c2ccccc2O)cc1`, “Active”.
The same measure, in the same setting: in the case of `Oc1cc(C(F)(F)F)ccc1-c1nc(-c2ccccc2O)n(-c2ccccc2)n1` it was “Active”; in that of `Oc1ccccc1-c1nc(-c2ccccc2O)n(-c2ccccc2)n1`, “Active”.
For the compound `CC(=O)Oc1cc(C(F)(F)F)ccc1-c1nc(-c2ccccc2OC(C)=O)n(-c2ccccc2)n1`, the result in [2] was Active.
With `COc1ccc(O)c(-c2nc(-c3ccccc3O)n(-c3ccc(S(N)(=O)=O)cc3)n2)c1`, in data set [1], the IC50 stood at 12.8 µM. The outcome in data set [2] was Active.
For the compound `COc1ccc(-c2nc(-c3ccccc3O)n(-c3ccccc3)n2)c(O)c1`, the result in data set [2] was Active.

The values are drawn from ChEMBL document CHEMBL5625239, “Synthesis of 1,3,5-triphenyl-1,2,4-triazole derivatives and their neuroprotection by anti-oxidative stress and anti-inflammation and protecting BBB” (Eur J Med Chem, 2023).
